Measured values: patent publication US8399457B2, “Pharmaceutical compounds” (Neuroscienze Pharmaness S.C. A.R.L., priority 2008, dated 2013)

How the values were obtained:
[1] = system: response to the pain in mice; test: Hot Plate test (analgesic effect)
[2] = system: response to the pain in mice; test: Tail Flick test (analgesic effect)
[3] = 10 mg/kg i.p., 30 min, formula (I) compounds as formates
[4] = 10 mg/kg i.p., 60 min, formula (I) compounds as formates
[5] = 10 mg/kg i.p., 120 min, formula (I) compounds as formates
[6] = 10 mg/kg i.p., 240 min, formula (I) compounds as formates
[7] = 10 mg/kg i.p., 360 min, formula (I) compounds as formates
[8] = 20 mg/kg i.p., 30 min, as formates
[9] = 20 mg/kg i.p., 60 min, as formates
[10] = 20 mg/kg i.p., 120 min, as formates
[11] = 20 mg/kg i.p., 240 min, as formates
[12] = 20 mg/kg i.p., 360 min, as formates

CCC(=O)N1CCC2CCC(C1)N2C/C=C(\C)c1ccccc1 (stereo not shown) [I-Aa]
melting point: 230 to 232 °C | MPE % [1, 3]: 49.5 ± 10.5% | MPE % [1, 4]: 25.1 ± 6.1% | MPE % [1, 5]: 6.0 ± 3.0% | MPE % [1, 6]: 3.2 ± 3.0% | MPE % [1, 7]: 4.1 ± 1.0% | MPE % [2, 3]: 65.5 ± 6.5% | MPE % [2, 4]: 20.1 ± 4.1% | MPE % [2, 5]: 10.0 ± 1.0% | MPE % [2, 6]: 3.1 ± 2.0% | MPE % [2, 7]: −3.0 ± 0.5%

CCC(=O)N1CCC2CCC(C1)N2C/C=C(\C)c1ccc(Cl)c(Cl)c1 (stereo not shown) [I-Ab]
melting point: 188 to 189 °C

CCC(=O)N1CCC2CCC(C1)N2CC=C(c1ccccc1)c1ccccc1 (stereo not shown) [I-Ad]
melting point: 176 to 177 °C

CCC(=O)N1C2CCC1CN(C/C=C(\C)c1ccccc1)CC2 (stereo not shown) [I-Ba]
melting point: 228 to 230 °C | MPE % [1, 8]: 68.9 ± 7.2% | MPE % [1, 9]: 50.5 ± 11.3% | MPE % [1, 10]: 7.0 ± 2.1% | MPE % [1, 11]: 6.0 ± 2.1% | MPE % [1, 12]: −4.0 ± 2.0% | MPE % [2, 8]: 89.9 ± 7.0% | MPE % [2, 9]: 88.5 ± 10.3% | MPE % [2, 10]: 9.0 ± 2.5% | MPE % [2, 11]: 2.0 ± 1.1% | MPE % [2, 12]: −2.0 ± 1.0%

CCC(=O)N1C2CCC1CN(C/C=C(\C)c1ccc(Cl)c(Cl)c1)CC2 (stereo not shown) [I-Bb]
melting point: 186 to 188 °C

CCC(=O)N1C2CCC1CN(CC=C(c1ccccc1)c1ccccc1)CC2 (stereo not shown) [I-Bd]
melting point: 184 to 186 °C

CCC(=O)N1CCC2CCCC(C1)N2C/C=C(\C)c1ccccc1 (stereo not shown) [I-Ca]
melting point: 106 to 108 °C

CCC(=O)N1CCC2CCCC(C1)N2C/C=C(\C)c1ccc(Cl)c(Cl)c1 (stereo not shown) [I-Cb]
melting point: 184 to 185 °C

CCC(=O)N1CCC2CCCC(C1)N2CC=C(c1ccccc1)c1ccccc1 (stereo not shown) [I-Cc]
melting point: 137 to 139 °C | MPE % [1, 8]: 55.2 ± 10.5% | MPE % [1, 9]: 40.9 ± 7.8% | MPE % [1, 10]: 24.1 ± 7.3% | MPE % [1, 11]: 5.0 ± 4.0% | MPE % [1, 12]: 0.1 ± 1.1% | MPE % [2, 8]: 80.2 ± 7.5% | MPE % [2, 9]: 52.9 ± 8.1% | MPE % [2, 10]: 42.1 ± 8.3% | MPE % [2, 11]: 14.6 ± 3.0% | MPE % [2, 12]: 0.0 ± 0.8%

CCC(=O)N1C2CCCC1CN(C/C=C(\C)c1ccccc1)CC2 (stereo not shown) [I-Da]
melting point: 144 to 146 °C

CCC(=O)N1C2CCCC1CN(C/C=C(\C)c1ccc(Cl)c(Cl)c1)CC2 (stereo not shown) [I-Db]
melting point: 175 to 176 °C

CCC(=O)N1C2CCCC1CN(CC=C(c1ccccc1)c1ccccc1)CC2 (stereo not shown) [I-Dc]
melting point: 169 to 170 °C

CN1CC[C@]23c4c5ccc(O)c4O[C@H]2[C@@H](O)C=C[C@H]3[C@H]1C5 [Morphine, reference compound]
MPE % [2, 4]: 60.5 ± 6.8% | MPE % [2, 5]: 39.6 ± 4.0% | MPE % [2, 6]: 19.1 ± 3.0% | MPE % [2, 7]: 6.1 ± 1.1%
